# Measured values: PubChem BioAssay AID330 (DTP/NCI, 2004)
# “And” between values parts separate entries of the source, which are not always exact repeats. Equal values may be shown once. Inconclusive results and toxic doses are left out.
# System: P388 leukemia ip, CD2F1 mice, survival T/C
# Assay: NCI In Vivo Anticancer Drug Screen. Data for tumor model P388 Leukemia (intraperitoneal) in CD2F1 (CDF1) mice
# Settings: endpoint: median survival time, higher = longer survival
# In short: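 Mice carrying the transplanted tumor received test compound or vehicle. Survival was recorded in each group, and the value is the treated-group measurement divided by that of the vehicle-treated control group.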
# [1] = dose: 12.5 mg/kg/injection, schedule: Q01DX009 (ip), vehicle: saline with Tween-80
# [2] = dose: 25.0 mg/kg/injection, schedule: Q01DX009 (ip), vehicle: saline with Tween-80
# [3] = dose: 50.0 mg/kg/injection, schedule: Q01DX009 (ip), vehicle: saline with Tween-80
# [4] = dose: 100.0 mg/kg/injection, schedule: Q01DX009 (ip), vehicle: saline with Tween-80
# [5] = dose: 50.0 mg/kg/injection, schedule: Q01DX005 (ip), vehicle: Klucel (hydroxypropylcellulose) (HPC)
# [6] = dose: 100.0 mg/kg/injection, schedule: Q01DX005 (ip), vehicle: Klucel (hydroxypropylcellulose) (HPC)
# [7] = dose: 200.0 mg/kg/injection, schedule: Q01DX005 (ip), vehicle: Klucel (hydroxypropylcellulose) (HPC)
# [8] = dose: 200.0 mg/kg/injection, schedule: Q01DX009 (ip), vehicle: saline with Tween-80
# [9] = dose: 50.0 mg/kg/injection, schedule: Q01DX005 (ip), vehicle: saline with Tween-80
# [10] = dose: 100.0 mg/kg/injection, schedule: Q01DX005 (ip), vehicle: saline with Tween-80
# [11] = dose: 200.0 mg/kg/injection, schedule: Q01DX005 (ip), vehicle: saline with Tween-80
compound,measurement,setting,value
CN(N=O)C(N)=O,T/C,"dose: 5.0 mg/kg/injection, schedule: Q04DX003 (ip), vehicle: saline with Tween-80",104 % of control
same,T/C,"dose: 10.0 mg/kg/injection, schedule: Q04DX003 (ip), vehicle: saline with Tween-80",119 % of control
same,T/C,[1],159 % of control
same,T/C,[2],95 % of control
same,T/C,"dose: 25.0 mg/kg/injection, schedule: Q04DX003 (ip), vehicle: saline with Tween-80",177 % of control
same,T/C,"dose: 37.5 mg/kg/injection, schedule: Q04DX003 (ip), vehicle: saline with Tween-80",172 % of control
same,T/C,"dose: 50.0 mg/kg/injection, schedule: Q04DX003 (ip), vehicle: saline with Tween-80",113 % of control
CCOC(=O)CCC(=O)Oc1ccc2c(c1)C(=O)c1ccc(OC(=O)CCC(=O)OCC)cc1C2=O,T/C,"dose: 1.87 mg/kg/injection, schedule: Q01DX005 (ip), vehicle: Klucel (hydroxypropylcellulose) (HPC)",99 % of control
same,T/C,"dose: 3.75 mg/kg/injection, schedule: Q01DX005 (ip), vehicle: Klucel (hydroxypropylcellulose) (HPC)",99 % of control
same,T/C,"dose: 7.5 mg/kg/injection, schedule: Q01DX005 (ip), vehicle: Klucel (hydroxypropylcellulose) (HPC)",99 % of control and 91 % of control
O=C(N/C(=C\c1ccc(Cl)cc1)c1nc2ccccc2s1)c1ccccc1,T/C,"dose: 60.0 mg/kg/injection, schedule: Q01DX005 (ip), vehicle: saline with Tween-80",111 % of control
same,T/C,"dose: 120.0 mg/kg/injection, schedule: Q01DX005 (ip), vehicle: saline with Tween-80",113 % of control
same,T/C,"dose: 240.0 mg/kg/injection, schedule: Q01DX005 (ip), vehicle: saline with Tween-80",113 % of control
C[N+]1(C[Si](C)(C)c2ccccc2)CCCCC1,T/C,"dose: 12.5 mg/kg/injection, schedule: Q01DX005 (ip), vehicle: saline",104 % of control
same,T/C,"dose: 25.0 mg/kg/injection, schedule: Q01DX005 (ip), vehicle: saline",100 % of control
same,T/C,"dose: 50.0 mg/kg/injection, schedule: Q01DX005 (ip), vehicle: saline",101 % of control and 105 % of control
CCOC(=O)N=C=S,T/C,[3],108 % of control
same,T/C,[4],108 % of control
O=S(=O)(O)SCCNCCc1ccccn1,T/C,"dose: 12.5 mg/kg/injection, schedule: Q01DX005 (ip), vehicle: water",104 % of control
same,T/C,"dose: 25.0 mg/kg/injection, schedule: Q01DX005 (ip), vehicle: water",109 % of control
same,T/C,"dose: 50.0 mg/kg/injection, schedule: Q01DX005 (ip), vehicle: water",109 % of control
same,T/C,"dose: 100.0 mg/kg/injection, schedule: Q01DX005 (ip), vehicle: water",107 % of control
O=C(N/N=C/c1ccccc1O)C(F)(F)F,T/C,[3],86 % of control
same,T/C,[4],86 % of control
Fc1ccc(OCCC(Cn2ccnc2)c2ccc(Cl)cc2Cl)cc1 (stereo not given),T/C,[1],106 % of control
same,T/C,[2],106 % of control
same,T/C,[3],88 % of control and 94 % of control
COc1cc2c(c(OC)c1OC)-c1cccc(=O)cc1C(NC(C)=O)CC2 (stereo not given),T/C,"dose: 1.25 mg/kg/injection, schedule: Q01DX009 (ip), vehicle: Klucel (hydroxypropylcellulose) (HPC)",121 % of control
same,T/C,"dose: 2.5 mg/kg/injection, schedule: Q01DX005 (ip), vehicle: saline",100 % of control
same,T/C,"dose: 5.0 mg/kg/injection, schedule: Q01DX005 (ip), vehicle: saline",101 % of control
same,T/C,"dose: 5.0 mg/kg/injection, schedule: Q01DX009 (ip), vehicle: Klucel (hydroxypropylcellulose) (HPC)",150 % of control and 155 % of control
same,T/C,"dose: 10.0 mg/kg/injection, schedule: Q01DX005 (ip), vehicle: saline",104 % of control
same,T/C,"dose: 10.0 mg/kg/injection, schedule: Q01DX009 (ip), vehicle: Klucel (hydroxypropylcellulose) (HPC)",176 % of control and 179 % of control
same,T/C,"dose: 20.0 mg/kg/injection, schedule: Q01DX005 (ip), vehicle: saline",99 % of control
same,T/C,"dose: 20.0 mg/kg/injection, schedule: Q01DX009 (ip), vehicle: Klucel (hydroxypropylcellulose) (HPC)",233 % of control and 250 % of control
same,T/C,"dose: 40.0 mg/kg/injection, schedule: Q01DX005 (ip), vehicle: saline",104 % of control
CC1N(C)c2cc3[nH]c(=O)cc(C(F)(F)F)c3cc2C1(C)C (stereo not given),T/C,"dose: 100.0 mg/kg/injection, schedule: Q01DX001 (ip), vehicle: Klucel (hydroxypropylcellulose) (HPC)",92 % of control and 96 % of control
same,T/C,"dose: 200.0 mg/kg/injection, schedule: Q01DX001 (ip), vehicle: Klucel (hydroxypropylcellulose) (HPC)",103 % of control and 94 % of control
same,T/C,"dose: 400.0 mg/kg/injection, schedule: Q01DX001 (ip), vehicle: Klucel (hydroxypropylcellulose) (HPC)",121 % of control
CCCCCCCCCCCCCCCC[N+](C)(C)CCN=[N+]=[N-],T/C,[1],110 % of control
same,T/C,[2],107 % of control
COc1ccc2c(c1OC)/C(=C/c1ccccc1)OC2C1c2c(cc3c(c2OC)OCO3)CCN1C (stereo not given),T/C,[5],104 % of control
same,T/C,[6],105 % of control
same,T/C,[7],96 % of control
Cc1c/c(=N\O)c2c(=O)ccoc2n1O,T/C,"dose: 50.0 mg/kg/injection, schedule: Q01DX009 (ip), vehicle: suspension in saline",99 % of control
same,T/C,"dose: 100.0 mg/kg/injection, schedule: Q01DX009 (ip), vehicle: suspension in saline",98 % of control
same,T/C,"dose: 200.0 mg/kg/injection, schedule: Q01DX009 (ip), vehicle: suspension in saline",97 % of control
Cc1cc(Nc2ccccc2C(=O)N/N=C/c2ccc(N(CCCl)CCCl)cc2)nc2ccc(Cl)cc12,T/C,"dose: 50.0 mg/kg/injection, schedule: Q01DX009 (ip), vehicle: saline",95 % of control
same,T/C,"dose: 100.0 mg/kg/injection, schedule: Q01DX009 (ip), vehicle: saline",90 % of control
same,T/C,"dose: 200.0 mg/kg/injection, schedule: Q01DX009 (ip), vehicle: saline",95 % of control
CC(=O)OC1CC(c2ccccc2)=NO1 (stereo not given),T/C,"dose: 60.0 mg/kg/injection, schedule: Q01DX005 (ip), vehicle: Klucel (hydroxypropylcellulose) (HPC)",106 % of control
same,T/C,"dose: 120.0 mg/kg/injection, schedule: Q01DX005 (ip), vehicle: Klucel (hydroxypropylcellulose) (HPC)",95 % of control
same,T/C,"dose: 240.0 mg/kg/injection, schedule: Q01DX005 (ip), vehicle: Klucel (hydroxypropylcellulose) (HPC)",103 % of control
CCCCCCCC#CC(=O)OC,T/C,[3],95 % of control
same,T/C,[4],101 % of control
same,T/C,[8],101 % of control
O=C1C(=O)N(c2ccccc2)C(=O)N1CCN1C(=O)C(=O)N(c2ccccc2)C1=O,T/C,"dose: 3.75 mg/kg/injection, schedule: Q01DX005 (ip), vehicle: saline with Tween-80",100 % of control
same,T/C,"dose: 7.5 mg/kg/injection, schedule: Q01DX005 (ip), vehicle: saline with Tween-80",90 % of control
same,T/C,"dose: 15.0 mg/kg/injection, schedule: Q01DX005 (ip), vehicle: saline with Tween-80",95 % of control
OC1C2CCC(C2)C1CN1CCOCC1 (stereo not given),T/C,"dose: 25.0 mg/kg/injection, schedule: Q01DX005 (ip), vehicle: saline with Tween-80",99 % of control
same,T/C,[9],99 % of control
same,T/C,[10],99 % of control
same,T/C,[11],96 % of control
CN(CCCCC1CCCN(C(=O)c2ccccc2)C1)C(=O)c1ccccc1 (stereo not given),T/C,"dose: 12.5 mg/kg/injection, schedule: Q01DX005 (ip), vehicle: Klucel (hydroxypropylcellulose) (HPC)",96 % of control
same,T/C,"dose: 25.0 mg/kg/injection, schedule: Q01DX005 (ip), vehicle: Klucel (hydroxypropylcellulose) (HPC)",94 % of control
same,T/C,[5],103 % of control and 97 % of control
Cc1ccc(S(=O)(=O)Nc2nnc(-c3coc4ccc(C)cc4c3=O)s2)cc1,T/C,[9],89 % of control
same,T/C,[10],88 % of control
COC(=S)c1cccc(C(=S)OC)c1,T/C,[3],108 % of control
same,T/C,[4],115 % of control
same,T/C,[8],108 % of control
CCCC(=O)N[C@H]1CCc2cc(OC)c(OC)c(OC)c2-c2ccc(SC)c(=O)cc21,T/C,"dose: 0.38 mg/kg/injection, schedule: Q01DX009 (ip), vehicle: distilled water + Tween-80",156 % of control
same,T/C,"dose: 0.75 mg/kg/injection, schedule: Q01DX009 (ip), vehicle: distilled water + Tween-80",160 % of control
same,T/C,"dose: 0.75 mg/kg/injection, schedule: Q01DX009 (ip), vehicle: water",182 % of control
same,T/C,"dose: 1.5 mg/kg/injection, schedule: Q01DX009 (ip), vehicle: water",231 % of control
Cc1ccc(S(=O)(=O)NC(=O)Nn2c(C)nc3ccccc3c2=O)cc1,T/C,[5],103 % of control
same,T/C,[6],102 % of control
same,T/C,[7],106 % of control
COC(=O)c1cc(OC)nc(OC)n1,T/C,"dose: 12.5 mg/kg/injection, schedule: Q01DX009 (ip), vehicle: distilled water + Tween-80",108 % of control
same,T/C,"dose: 25.0 mg/kg/injection, schedule: Q01DX009 (ip), vehicle: distilled water + Tween-80",96 % of control
same,T/C,"dose: 50.0 mg/kg/injection, schedule: Q01DX009 (ip), vehicle: distilled water + Tween-80",105 % of control
same,T/C,"dose: 100.0 mg/kg/injection, schedule: Q01DX009 (ip), vehicle: distilled water + Tween-80",99 % of control
N#C/C(=C1/OC(=N)C(c2ccccc2Cl)C1=O)c1ccccc1Cl (stereo not given),T/C,[9],103 % of control
same,T/C,[10],107 % of control
same,T/C,[11],103 % of control
